Reference: paper PMC12567349, “Design and Optimization of Spiro-Isatin-Thiazolidinone Hybrids with Promising Anticancer Activity” (Pharmaceuticals, 2025)

Legend:
Type in all cases: cell-based
HCT116 cells = test: MTT assay, 72 h, HCT116; conditions: Homo sapiens, HCT-116, mean ± SD
Experimental: (§1) The cytotoxic potential of the synthesized compounds was investigated using the MTT assay after 72 h incubation with a panel of human and murine cancer cell lines, including colorectal carcinoma (HCT116), estrogen receptor-positive breast adenocarcinoma (MCF-7), triple-negative breast adenocarcinoma (MDA-MB-231), epidermoid carcinoma (KB3-1), myeloid leukemia (K562), and glioblastoma (U373), and mouse breast carcinoma (4T1) cells. To assess the selectivity of the compounds, pseudo-normal cell lines—human keratinocytes (HaCaTs) and mouse fibroblasts (NIH3T3s)—were also tested under the same conditions.
(§2) Human breast adenocarcinoma cells of MCF-7 and MDA-MB-231 lines, human glioblastoma cells of U373 line, human chronic myelogenous leukemia cells of K562 line, human colorectal carcinoma cells of HCT116 line, and human epidermoid carcinoma cells of KB3-1 line were kindly donated by a Collection of the Institute for Cancer Research at Vienna Medical University (Vienna, Austria). Human keratinocytes of HaCaT line, murine breast carcinoma cells of 4T1 line, and murine fibroblasts of the NIH3T3 line were obtained from the Cell Collection of the R.E. Kavetsky Institute of Experimental Pathology, Oncology and Radiobiology of the National Academy of Sciences of Ukraine (Kyiv, Ukraine). MCF-7, MDA-MB-231, U373, K562, HaCaT, and NIH3T3 cells were cultured in DMEM medium (Sigma-Aldrich, Burlington, MA, USA) supplemented with 2 mM L-glutamine, 4500 mg/L glucose, and 1 mM sodium pyruvate. HCT116 and KB3-1 cells were maintained in RPMI-1640 medium supplemented with 2 mM L-glutamine (Sigma-Aldrich, USA). Both media were supplemented with 10% fetal bovine serum (Sigma-Aldrich, USA). All cell lines were incubated at 37 °C in a humidified atmosphere containing 5% CO2.
(§3) The substrate cells were seeded at a density of 5000 cells per 100 µL, while suspension K562 cells were seeded at 15,000 cells per 100 µL in 96-well plates and incubated overnight. Doxorubicin (Dox, Sigma-Aldrich, USA) was used as a reference drug. Studied substances were then added in 100 µL of culture medium, and the cells were further incubated for 72 h. Subsequently, 20 µL of MTT solution (5 mg/mL, Sigma-Aldrich, USA) was added to each well and incubated for 2–4 h. Formazan crystals were then solubilized by adding dimethyl sulfoxide (Sigma-Aldrich, USA). Absorbance was measured using a BioTek ELx800 Absorbance Reader (BioTek Instruments, Inc., Winooski, VT, USA). The results were analyzed and illustrated using GraphPad Prism (version 8.0.1; GraphPad Software, San Diego, CA, USA) and presented as a mean (M) ± standard deviation (SD). The IC50 values of the compounds were determined using nonlinear regression analysis in GraphPad Prism 10.4.2 [40].

MCF-7 cells = test: MTT assay, 72 h, MCF-7; conditions: Homo sapiens, MCF7, mean ± SD
Experimental: as §1, §2
as §3, with “Doxorubicin (Dox, Sigma-Aldrich, USA) was used as a reference drug.” left out

MDA-MB-231 cells = test: MTT assay, 72 h, MDA-MB-231; conditions: Homo sapiens, mean ± SD
Experimental: as §1, §2, §3

4T1 cells = test: MTT assay, 72 h, 4T1; conditions: Mus musculus, mean ± SD
Experimental: as §1, §2, §3

KB3-1 cells = test: MTT assay, 72 h, KB3-1; conditions: Homo sapiens, KB 3-1, mean ± SD
Experimental: as §1, §2, §3

K562 cells = test: MTT assay, 72 h, K562; conditions: Homo sapiens, mean ± SD
Experimental: as §1, §2, §3

U373 cells = test: MTT assay, 72 h, U373; conditions: Homo sapiens, U373 MG, mean ± SD
Experimental: as §1, §2, §3

HaCaT cells = test: MTT assay, 72 h, HaCaT (pseudo-normal); conditions: Homo sapiens, mean ± SD
Experimental: as §1, §2, §3

NIH3T3 cells = test: MTT assay, 72 h, NIH3T3 (pseudo-normal); conditions: Mus musculus, mean ± SD
Experimental: as §1, §2, §3

IC50 (HCT116 cells)	IC50 (MCF-7 cells)	IC50 (MDA-MB-231 cells)	IC50 (4T1 cells)	IC50 (K562 cells)	Structure (SMILES)	IC50 (KB3-1 cells)	IC50 (U373 cells)	IC50 (HaCaT cells)	IC50 (NIH3T3 cells)
> 100 µM	> 100 µM	> 100 µM	> 100 µM	> 100 µM	O=C1/C(=C/c2ccc(N3CCOCC3)cc2)SC2(C(=O)Nc3ccc(Cl)cc32)N1c1ccc(Cl)cc1 (centres unmarked) [Compound 10, (Z)-5-Chloro-3′-(4-chlorophenyl)-5′-(4-morpholinobenzylidene)spiro[indoline-3,2′-thiazolidine]-2,4′-dione]	16.9 ± 0.86 µM	> 100 µM	> 100 µM	> 100 µM
92.8 ± 1.09 µM	42.6 ± 1.24 µM	68.79 ± 0.62 µM	95.3 ± 1.07 µM	95.5 ± 2.64 µM	O=C1CSC2(C(=O)Nc3ccc(Cl)cc32)N1Cc1ccccc1 (centres unmarked) [Compound 5, 3′-Benzyl-5-chlorospiro[indoline-3,2′-thiazolidine]-2,4′-dione]	52.1 ± 0.67 µM	76.2 ± 0.8 µM	> 100 µM	> 100 µM
88.9 ± 6.33 µM	64 ± 4.77 µM	56.5 ± 1.93 µM	43.8 ± 1.76 µM	7.99 ± 0.12 µM	O=C1CSC2(C(=O)Nc3ccc(Br)cc32)N1c1ccc(Br)cc1 (centres unmarked) [Compound 3, 5-Bromo-3′-(4-bromophenyl)spiro[indoline-3,2′-thiazolidine]-2,4′-dione]	46.7 ± 0.54 µM	49.4 ± 1.33 µM	38.4 ± 0.77 µM	82.9 ± 2.05 µM
> 100 µM	> 100 µM	> 100 µM	> 100 µM	> 100 µM	COc1ccc(N2C(=O)/C(=C/c3ccc(-c4ccccn4)cc3)SC23C(=O)Nc2ccc(Cl)cc23)cc1 (centres unmarked) [Compound 12, (Z)-5-Chloro-3′-(4-methoxyphenyl)-5′-(4-(pyridin-2-yl)benzylidene)spiro[indoline-3,2′-thiazolidine]-2,4′-dione]	0.97 ± 0.11 µM	> 100 µM	> 100 µM	> 100 µM
> 100 µM	52.2 ± 2.15 µM	8.55 ± 0.06 µM	29 ± 0.92 µM	27.7 ± 3.02 µM	COc1ccc(N2C(=O)/C(=C/c3ccc(Cl)cc3)SC23C(=O)Nc2ccc(Cl)cc23)cc1 (centres unmarked) [Compound 7, (Z)-5-Chloro-5′-(4-chlorobenzylidene)-3′-(4-methoxyphenyl)spiro[indoline-3,2′-thiazolidine]-2,4′-dione]	17.2 ± 0.21 µM	72.3 ± 0.8 µM	8.63 ± 0.57 µM	79.7 ± 0.93 µM
> 100 µM	> 100 µM	53.27 ± 0.51 µM	69 ± 5.11 µM	> 100 µM	CC(C)(C)c1ccc(/C=C2\SC3(C(=O)Nc4ccc(Br)cc43)N(c3ccc(Br)cc3)C2=O)cc1 (centres unmarked) [Compound 16, (Z)-5-Bromo-3′-(4-bromophenyl)-5′-(4-(tert-butyl)benzylidene)spiro[indoline-3,2′-thiazolidine]-2,4′-dione]	29.5 ± 0.33 µM	> 100 µM	> 100 µM	> 100 µM
> 100 µM	84.9 ± 6.51 µM	62.69 ± 0.22 µM	73 ± 7.02 µM	9.96 ± 1.17 µM	O=C1CSC2(C(=O)Nc3ccc(Cl)cc32)N1c1ccc(Cl)cc1 (centres unmarked) [Compound 2, 5-Chloro-3′-(4-chlorophenyl)spiro[indoline-3,2′-thiazolidine]-2,4′-dione]	51.77 ± 0.26 µM	77.91 ± 0.56 µM	82.8 ± 1.94 µM	98.25 ± 0.64 µM
> 100 µM	6 ± 0.28 µM	6.37 ± 0.11 µM	5.66 ± 0.27 µM	74.35 ± 0.66 µM	O=C1/C(=C/c2ccc(Cl)cc2)SC2(C(=O)Nc3ccc(Cl)cc32)N1c1ccc(Cl)cc1 (centres unmarked) [Compound 11, (Z)-5-Chloro-5′-(4-chlorobenzylidene)-3′-(4-chlorophenyl)spiro[indoline-3,2′-thiazolidine]-2,4′-dione]	6.95 ± 0.14 µM	66.9 ± 0.83 µM	8.67 ± 0.49 µM	> 100 µM
0.9 ± 0.11 µM	–	0.6 ± 0.08 µM	0.73 ± 0.1 µM	0.95 ± 0.11 µM	COc1cccc2c1C(=O)c1c(O)c3c(c(O)c1C2=O)C[C@@](O)(C(=O)CO)C[C@@H]3O[C@H]1C[C@H](N)[C@H](O)[C@H](C)O1 [Dox, Doxorubicin, reference compound]	0.53 ± 0.08 µM	0.35 ± 0.09 µM	3.1 ± 0.18 µM	0.63 ± 0.12 µM
> 100 µM	> 100 µM	99.21 ± 0.41 µM	91.8 ± 1.55 µM	88.8 ± 4.06 µM	O=C1CSC2(C(=O)Nc3ccc(F)cc32)N1Cc1ccccc1 (centres unmarked) [Compound 4, 3′-Benzyl-5-fluorospiro[indoline-3,2′-thiazolidine]-2,4′-dione]	60.2 ± 0.72 µM	98.6 ± 1.92 µM	> 100 µM	> 100 µM
62.7 ± 0.76 µM	63.9 ± 0.59 µM	59.3 ± 2.27 µM	60.5 ± 1.84 µM	> 100 µM	CCOc1ccc(/C=C2\SC3(C(=O)Nc4ccc(F)cc43)N(Cc3ccccc3)C2=O)cc1 (centres unmarked) [Compound 19, (Z)-3′-Benzyl-5′-(4-ethoxybenzylidene)-5-fluorospiro[indoline-3,2′-thiazolidine]-2,4′-dione]	35 ± 0.48 µM	54.89 ± 0.33 µM	96.79 ± 0.78 µM	94.35 ± 0.87 µM
> 100 µM	77.4 ± 2.9 µM	30.7 ± 0.45 µM	46.6 ± 2.98 µM	> 100 µM	CC(C)(C)c1ccc(/C=C2\SC3(C(=O)Nc4ccc(Cl)cc43)N(c3ccc(Cl)cc3)C2=O)cc1 (centres unmarked) [Compound 15, (Z)-5′-(4-(Tert-butyl)benzylidene)-5-chloro-3′-(4-chlorophenyl)spiro[indoline-3,2′-thiazolidine]-2,4′-dione]	9.77 ± 0.78 µM	79.3 ± 1.31 µM	> 100 µM	90.32 ± 0.68 µM
> 100 µM	> 100 µM	85.3 ± 1.15 µM	89.4 ± 1.93 µM	71.8 ± 7.79 µM	COc1ccc(N2C(=O)CSC23C(=O)Nc2ccc(Cl)cc23)cc1 (centres unmarked) [Compound 1, 5-Chloro-3′-(4-methoxyphenyl)spiro[indoline-3,2′-thiazolidine]-2,4′-dione]	62.3 ± 0.51 µM	76.7 ± 0.54 µM	96.7 ± 1.02 µM	77.6 ± 1.82 µM
> 100 µM	74.5 ± 4.73 µM	7.89 ± 0.33 µM	7.84 ± 0.49 µM	67.1 ± 0.7 µM	CCOc1ccc(/C=C2\SC3(C(=O)Nc4ccc(Cl)cc43)N(c3ccc(Cl)cc3)C2=O)cc1 (centres unmarked) [Compound 9, (Z)-5-Chloro-3′-(4-chlorophenyl)-5′-(4-ethoxybenzylidene)spiro[indoline-3,2′-thiazolidine]-2,4′-dione]	22.3 ± 1.17 µM	98.22 ± 0.87 µM	> 100 µM	> 100 µM
> 100 µM	83.3 ± 6.03 µM	55.9 ± 5.67 µM	68 ± 2.6 µM	> 100 µM	COc1ccc(N2C(=O)/C(=C/C=C/c3ccccc3)SC23C(=O)Nc2ccc(Cl)cc23)cc1 (centres unmarked) [Compound 6, (Z)-5-Chloro-3′-(4-methoxyphenyl)-5′-((E)-3-phenylallylidene)spiro[indoline-3,2′-thiazolidine]-2,4′-dione]	45.23 ± 0.36 µM	69.5 ± 0.9 µM	85.3 ± 1.27 µM	> 100 µM
